According to patent US8975252B2, “Morpholine derivative” (Shanghai Pharmaceuticals Holding Co., Ltd., priority 2007, dated 2015):
Where a name gives a salt, the structure may show the parent alone. Read-outs that look alike come from different tables or passages of the source.

Target: Recombinant human renin (Homo sapiens (Human), UniProt P00797)
Experiment: Inhibitory activity against human renin (fluorogenic synthetic peptide substrate)
Assay type: biochemical
Protocol: Inhibitory Activity Against Human Renin
A renin substrate of synthetic peptide (Nma-KHPFH LVIHK(Dnp)-NH2) and test compound were mixed, and fluorescence intensity was assayed using a fluorophotometer before starting an enzymatic reaction (exciting wavelength: 340 nm, measuring wavelength: 460 nm). Recombinant human renin was added and the mixture was incubated at 37° C. for an hour, and the fluorescence intensity was measured after the reaction using a fluorophotometer (exciting wavelength: 340 nm, measuring wavelength: 460 nm). Renin activity was evaluated on the ground of fluorescence intensity which was obtained by deduction of the intensity before the reaction from the intensity after the reaction, and 50% inhibitory concentration (IC50) was calculated from renin activities under the existence of various concentration of the tested compound.

[1] = recombinant human renin, substrate Nma-KHPFH LVIHK(Dnp)-NH2, 37° C. for an hour, fluorescence, read-out: Inhibitory Activity against human Renin(IC50)

Recombinant human renin, sequence (P00797 67-406): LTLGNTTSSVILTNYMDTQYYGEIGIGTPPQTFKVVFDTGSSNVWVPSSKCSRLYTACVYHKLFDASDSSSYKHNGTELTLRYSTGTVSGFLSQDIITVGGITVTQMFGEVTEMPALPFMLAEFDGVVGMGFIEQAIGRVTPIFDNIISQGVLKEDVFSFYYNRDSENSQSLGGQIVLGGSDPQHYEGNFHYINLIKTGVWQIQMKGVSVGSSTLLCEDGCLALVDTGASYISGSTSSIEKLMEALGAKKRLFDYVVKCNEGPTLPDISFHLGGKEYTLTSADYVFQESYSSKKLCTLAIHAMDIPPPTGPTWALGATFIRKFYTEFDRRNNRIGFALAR

Row | IC50 (assay for renin-inhibition, read-out: renin-inhibition IC50) | Compound | IC50 [1]
1 | < 1000 nM | COCCCOc1cc(CN(C(=O)[C@H]2CNCCO2)C2CC2)ccc1OC [(2R)—N-cyclopropyl-N-[4-methoxy-3-(3-methoxypropoxy)benzyl]morpholine-2-carboxamide hydrochloride] | –
2 | – | COCCCOc1cc(CN(C(=O)[C@H]2CNCCO2)C2CC2)cc2ccccc12 [Example 4, (2R)—N-cyclopropyl-N-{[4-(3-methoxypropoxy)-2-naphthyl]methyl}morpholin-2-carboxamide hydrochloride] | 30.2 nM
3 | – | COCCCn1cc(CN(C(=O)[C@H]2CNCCO2)C2CC2)c2ccccc21 [Example 39] | 13 nM
